In ChEMBL document CHEMBL4715703, “Engineering of a Novel Simplified Human Insulin-Like Peptide 5 Agonist” (J Med Chem, 2016):
Where a SMILES comes first, the peptide text is derived from it. Bridges are numbered along the chain shown (N, C = ends). Roman numbers before positions name the chains, in order.

Experiments:
Relaxin-3 receptor 2 [1] = biological target: T1, Relaxin-3 receptor 2 (Homo sapiens, UniProt Q8TDU9); assay: Displacement of europium-labeled Eu(A)-mINSL5 from human RXFP4 expressed in CHO-K1 cells; type: cell-based
Relaxin-3 receptor 2 [2] = biological target: T1, Relaxin-3 receptor 2; assay: Agonist activity at human RXFP4 expressed in CHO-K1 cells assessed as reduction in forskolin-induced cAMP production by pCRE beta-galactosidase reporter assay; type: functional, cell-based

T1 sequence (Q8TDU9 whole entry): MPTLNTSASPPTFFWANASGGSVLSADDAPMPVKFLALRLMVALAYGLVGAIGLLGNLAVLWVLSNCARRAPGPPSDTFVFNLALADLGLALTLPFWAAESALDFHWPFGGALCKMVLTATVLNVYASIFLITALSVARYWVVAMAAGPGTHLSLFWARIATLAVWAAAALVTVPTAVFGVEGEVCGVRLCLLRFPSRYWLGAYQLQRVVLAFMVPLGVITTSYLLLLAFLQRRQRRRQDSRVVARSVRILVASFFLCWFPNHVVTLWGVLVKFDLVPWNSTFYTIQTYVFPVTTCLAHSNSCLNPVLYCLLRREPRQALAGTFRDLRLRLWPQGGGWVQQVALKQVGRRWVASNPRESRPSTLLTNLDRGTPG

Molecule	Ki (Relaxin-3 receptor 2 [1])	EC50 (Relaxin-3 receptor 2 [2])
CC[C@H](C)[C@@H]1NC(=O)[C@H](Cc2ccc(O)cc2)NC(=O)[C@H]([C@@H](C)CC)NC(=O)[C@H](C(C)C)NC(=O)[C@H]([C@@H](C)O)NC(=O)[C@H](CCCNC(=N)N)NC(=O)[C@H]([C@@H](C)CC)NC(=O)[C@H](Cc2ccc(O)cc2)NC(=O)[C@H](CCC(=O)O)NC(=O)[C@H](CC(C)C)NC(=O)CNC(=O)[C@@H](NC(=O)[C@H](CC(C)C)NC(=O)[C@H](CCCNC(=N)N)NC(=O)[C@@H](NC(=O)[C@H](CO)NC(=O)[C@H](CCC(=O)O)NC(=O)[C@@H](N)CCCCN)C(C)C)CSSC[C@H](N)C(=O)N[C@@H]([C@@H](C)O)C(=O)N[C@@H](CC(=O)O)C(=O)NCC(=O)N[C@@H](C)C(=O)N[C@@H](CO)C(=O)N[C@@H](CCSC)C(=O)N[C@@H]([C@@H](C)O)C(=O)N[C@@H](CC(=O)O)C(=O)N[C@@H](CC(C)C)C(=O)N[C@@H](CO)C(=O)N[C@@H](C)C(=O)N[C@@H](CC(C)C)C(=O)N[C@H](C(=O)O)CSSC[C@@H](C(=O)N[C@@H](C)C(=O)N[C@@H](CO)C(=O)N[C@@H](CO)C(=O)N[C@@H](CCCNC(=N)N)C(=O)N[C@@H](Cc2c[nH]c3ccccc23)C(=O)O)NC1=O (I: H-KESVRLCGLEYIRTVIYICASSRW-OH / II: H-CTDGASMTDLSALC-OH; disulfide I:7-II:1, I:19-II:14)	145 nM	100 nM
CC[C@H](C)[C@@H]1NC(=O)[C@H](Cc2ccc(O)cc2)NC(=O)[C@H]([C@@H](C)CC)NC(=O)[C@H](C(C)C)NC(=O)[C@H]([C@@H](C)O)NC(=O)[C@H](CCCNC(=N)N)NC(=O)[C@H]([C@@H](C)CC)NC(=O)[C@H](Cc2ccc(O)cc2)NC(=O)[C@H](CCC(=O)O)NC(=O)[C@H](CC(C)C)NC(=O)CNC(=O)[C@@H](NC(=O)[C@H](CC(C)C)NC(=O)[C@H](CCCNC(=N)N)NC(=O)[C@@H](NC(=O)[C@H](CO)NC(=O)[C@H](CCC(=O)O)NC(=O)[C@@H](N)CCCCN)C(C)C)CSSC[C@H](N)C(=O)N[C@@H](CCCNC(=N)N)C(=O)N[C@@H](CCC(=O)O)C(=O)NCC(=O)N[C@@H](C)C(=O)N[C@@H](CO)C(=O)N[C@@H](CCSC)C(=O)N[C@@H](CCCCN)C(=O)N[C@@H](CCC(=O)O)C(=O)N[C@@H](CC(C)C)C(=O)N[C@@H](CO)C(=O)N[C@@H]([C@@H](C)O)C(=O)N[C@@H](CC(C)C)C(=O)N[C@H](C(=O)O)CSSC[C@@H](C(=O)N[C@@H](C)C(=O)N[C@@H](CO)C(=O)N[C@@H](CO)C(=O)N[C@@H](CCCNC(=N)N)C(=O)N[C@@H](Cc2c[nH]c3ccccc23)C(=O)O)NC1=O (I: H-KESVRLCGLEYIRTVIYICASSRW-OH / II: H-CREGASMKELSTLC-OH; disulfide I:7-II:1, I:19-II:14)	22.4 nM	15.1 nM
CC[C@H](C)[C@@H]1NC(=O)[C@H](Cc2ccc(O)cc2)NC(=O)[C@H]([C@@H](C)CC)NC(=O)[C@H](C(C)C)NC(=O)[C@H]([C@@H](C)O)NC(=O)[C@H](CCCNC(=N)N)NC(=O)[C@H](C(C)C)NC(=O)[C@H](Cc2ccc(O)cc2)NC(=O)[C@H](CC(=O)O)NC(=O)[C@H](CC(C)C)NC(=O)CNC(=O)[C@@H](NC(=O)[C@H](CC(C)C)NC(=O)[C@H](CCCCN)NC(=O)[C@@H](NC(=O)[C@@H](NC(=O)[C@H](CCC(N)=O)NC(=O)[C@H](CCCNC(=N)N)NC(=O)[C@@H](N)CO)[C@@H](C)O)C(C)C)CSSC[C@H](N)C(=O)N[C@@H](CCCNC(=N)N)C(=O)N[C@@H](CCC(=O)O)C(=O)NCC(=O)N[C@@H](C)C(=O)N[C@@H](CO)C(=O)N[C@@H](CCSC)C(=O)N[C@@H](CCCCN)C(=O)N[C@@H](CCC(=O)O)C(=O)N[C@@H](CC(C)C)C(=O)N[C@@H](CO)C(=O)N[C@@H]([C@@H](C)O)C(=O)N[C@@H](CC(C)C)C(=O)N[C@H](C(=O)O)CSSC[C@@H](C(=O)N[C@@H](C)C(=O)N[C@@H](CO)C(=O)N[C@@H](CO)C(=O)N[C@@H](CCCNC(=N)N)C(=O)N[C@@H](Cc2c[nH]c3ccccc23)C(=O)O)NC1=O (I: H-SRQTVKLCGLDYVRTVIYICASSRW-OH / II: H-CREGASMKELSTLC-OH; disulfide I:8-II:1, I:20-II:14)	18.6 nM	33.9 nM
CC[C@H](C)[C@@H]1NC(=O)[C@H](Cc2ccc(O)cc2)NC(=O)[C@H]([C@@H](C)CC)NC(=O)[C@H](C(C)C)NC(=O)[C@H]([C@@H](C)O)NC(=O)[C@H](CCCNC(=N)N)NC(=O)[C@H]([C@@H](C)CC)NC(=O)[C@H](Cc2ccc(O)cc2)NC(=O)[C@H](CCC(=O)O)NC(=O)[C@H](CC(C)C)NC(=O)CNC(=O)[C@@H](NC(=O)[C@H](CC(C)C)NC(=O)[C@H](CCCNC(=N)N)NC(=O)[C@@H](NC(=O)[C@H](CO)NC(=O)[C@H](CCC(=O)O)NC(=O)[C@@H](N)CCCCN)C(C)C)CSSC[C@H](N)C(=O)N[C@@H](CCCNC(=N)N)C(=O)N[C@@H](CC(=O)O)C(=O)NCC(=O)N[C@@H](C)C(=O)N[C@@H](CO)C(=O)N[C@@H](CCSC)C(=O)N[C@@H](CCCCN)C(=O)N[C@@H](CC(=O)O)C(=O)N[C@@H](CC(C)C)C(=O)N[C@@H](CO)C(=O)N[C@@H](C)C(=O)N[C@@H](CC(C)C)C(=O)N[C@H](C(=O)O)CSSC[C@@H](C(=O)N[C@@H](C)C(=O)N[C@@H](CO)C(=O)N[C@@H](CO)C(=O)N[C@@H](CCCNC(=N)N)C(=O)N[C@@H](Cc2c[nH]c3ccccc23)C(=O)O)NC1=O (I: H-KESVRLCGLEYIRTVIYICASSRW-OH / II: H-CRDGASMKDLSALC-OH; disulfide I:7-II:1, I:19-II:14)	23.4 nM	39.8 nM
CC[C@H](C)[C@@H]1NC(=O)[C@H](Cc2ccc(O)cc2)NC(=O)[C@H]([C@@H](C)CC)NC(=O)[C@H](C(C)C)NC(=O)[C@H]([C@@H](C)O)NC(=O)[C@H](CCCNC(=N)N)NC(=O)[C@H]([C@@H](C)CC)NC(=O)[C@H](Cc2ccc(O)cc2)NC(=O)[C@H](CCC(=O)O)NC(=O)[C@H](CC(C)C)NC(=O)CNC(=O)[C@@H](NC(=O)[C@H](CC(C)C)NC(=O)[C@H](CCCNC(=N)N)NC(=O)[C@@H](NC(=O)[C@H](CO)NC(=O)[C@H](CCC(=O)O)NC(=O)[C@@H](N)CCCCN)C(C)C)CSSC[C@H](N)C(=O)N[C@@H](CCCNC(=N)N)C(=O)N[C@@H](CC(=O)O)C(=O)NCC(=O)N[C@@H](C)C(=O)N[C@@H](CO)C(=O)N[C@@H](CCSC)C(=O)N[C@@H]([C@@H](C)O)C(=O)N[C@@H](CC(=O)O)C(=O)N[C@@H](CC(C)C)C(=O)N[C@@H](CO)C(=O)N[C@@H](C)C(=O)N[C@@H](CC(C)C)C(=O)N[C@H](C(=O)O)CSSC[C@@H](C(=O)N[C@@H](C)C(=O)N[C@@H](CO)C(=O)N[C@@H](CO)C(=O)N[C@@H](CCCNC(=N)N)C(=O)N[C@@H](Cc2c[nH]c3ccccc23)C(=O)O)NC1=O (I: H-KESVRLCGLEYIRTVIYICASSRW-OH / II: H-CRDGASMTDLSALC-OH; disulfide I:7-II:1, I:19-II:14)	912 nM	603 nM

Stronger by EC50 (Relaxin-3 receptor 2 [2]), values ahead:

Ki (Relaxin-3 receptor 2 [1])	EC50 (Relaxin-3 receptor 2 [2])	Molecule
	2.75 nM	CC[C@H](C)[C@@H]1NC(=O)[C@H](Cc2ccc(O)cc2)NC(=O)[C@H]([C@@H](C)CC)NC(=O)[C@H](C(C)C)NC(=O)[C@H]([C@@H](C)O)NC(=O)[C@H](CCCNC(=N)N)NC(=O)[C@H](C(C)C)NC(=O)[C@H](Cc2ccc(O)cc2)NC(=O)[C@H](CC(=O)O)NC(=O)[C@H](CC(C)C)NC(=O)CNC(=O)[C@@H](NC(=O)[C@H](CC(C)C)NC(=O)[C@H](CCCCN)NC(=O)[C@@H](NC(=O)[C@@H](NC(=O)[C@H](CCC(N)=O)NC(=O)[C@H](CCCNC(=N)N)NC(=O)[C@@H](N)CO)[C@@H](C)O)C(C)C)CSSC[C@@H]2NC(=O)[C@@H](NC(=O)[C@H](CC(C)C)NC(=O)[C@@H](NC(=O)[C@H](CCC(N)=O)NC(=O)[C@H](CC(C)C)NC(=O)[C@H](CC(=O)O)NC(=O)C3CCC(=O)N3)[C@@H](C)O)CSSC[C@@H](NC(=O)CNC(=O)[C@H](CC(=O)O)NC(=O)[C@H]([C@@H](C)O)NC2=O)C(=O)N[C@H](CO)C(=O)N[C@H](CCSC)C(=O)N[C@H]([C@H](C)O)C(=O)N[C@H](CC(=O)O)C(=O)N[C@H](CC(C)C)C(=O)N[C@H](CO)C(=O)N[C@H](C)C(=O)N[C@H](CC(C)C)C(=O)N[C@@H](C(=O)O)CSSC[C@H](C(=O)N[C@@H](C)C(=O)N[C@@H](CO)C(=O)N[C@@H](CO)C(=O)N[C@@H](CCCNC(=N)N)C(=O)N[C@@H](Cc2c[nH]c3ccccc23)C(=O)O)NC1=O (stereo not given in full)
1.58 nM	0.51 nM	CC[C@H](C)[C@@H]1NC(=O)[C@H](C(C)C)NC(=O)[C@H]([C@@H](C)O)NC(=O)[C@H](CCCNC(=N)N)NC(=O)[C@H](C(C)C)NC(=O)[C@H](Cc2ccc(O)cc2)NC(=O)[C@H](CC(=O)O)NC(=O)[C@H](CC(C)C)NC(=O)CNC(=O)[C@@H](NC(=O)[C@H](CC(C)C)NC(=O)[C@H](CCCCN)NC(=O)[C@@H](NC(=O)[C@@H](NC(=O)[C@H](CCC(N)=O)NC(=O)[C@H](CCCNC(=N)N)NC(=O)[C@@H](N)CO)[C@@H](C)O)C(C)C)CSSC[C@@H]2NC(=O)[C@@H](NC(=O)[C@H](CC(C)C)NC(=O)[C@H](C)NC(=O)[C@H](CCC(N)=O)NC(=O)[C@H](CC(C)C)NC(=O)[C@H](CC(=O)O)NC(=O)[C@@H](N)CCCNC(=N)N)CSSC[C@H](NC(=O)CNC(=O)[C@H](CCC(=O)O)NC(=O)[C@H](CCCNC(=N)N)NC2=O)C(=O)N[C@@H](CO)C(=O)N[C@@H](CCSC)C(=O)N[C@@H](CCCCN)C(=O)N[C@@H](CCC(=O)O)C(=O)N[C@@H](CC(C)C)C(=O)N[C@@H](CO)C(=O)N[C@@H]([C@@H](C)O)C(=O)N[C@@H](CC(C)C)C(=O)N[C@H](C(=O)O)CSSC[C@@H](C(=O)N[C@@H](C)C(=O)N[C@@H](CO)C(=O)N[C@@H](CO)C(=O)N[C@@H](CCCNC(=N)N)C(=O)N[C@@H](Cc2c[nH]c3ccccc23)C(=O)O)NC(=O)[C@H]([C@@H](C)CC)NC(=O)[C@@H](Cc2ccc(O)cc2)NC1=O
5.5 nM	0.35 nM	I: H-KESVRLCGLEYIRTVIYICASSRW-OH / II: H-RDLQALCCREGCSMKELSTLC-OH (disulfide I:7-II:8, I:19-II:21, II:7-II:12)
